PMC4506051, “Pharmacokinetic Profiles of Active Ingredients and Its Metabolites Derived from Rikkunshito, a Ghrelin Enhancer, in Healthy Japanese Volunteers: A Cross-Over, Randomized Study” (PLoS ONE, 2015)

What was measured:
[1] = Exploratory trial: plasma concentration of rikkunshito ingredients after single oral rikkunshito 7.5 g; format: in vivo; conditions: mean ± S.D., n = 4; for Plasma concentration, 0 h: 0 h (preadministration), single oral rikkunshito 7.5 g; for Plasma concentration, 0.5 h: 0.5 h after single oral rikkunshito 7.5 g; for Plasma concentration, 1 h: 1 h after single oral rikkunshito 7.5 g; for Plasma concentration, 2 h: 2 h after single oral rikkunshito 7.5 g; for Plasma concentration, 4 h: 4 h after single oral rikkunshito 7.5 g; for Plasma concentration, 8 h: 8 h after single oral rikkunshito 7.5 g
Method: A random sequence was generated using a computer. The safety endpoint was evaluated in all volunteers.
(§1) In the first exploratory trial, 20-mL blood samples were collected from the cutaneous vein in the subjects’ forearm via a blood sampling tube that contained heparin at 0 (preadministration), 0.5, 1, 2, 4, and 8 h after a single oral administration of rikkunshito (Lot E24652). The dose of rikkunshito used in this trial was 7.5 g/day, which is the clinical daily dose, to widely explore rikkunshito-derived ingredients that enter the blood. Along with plasma, urine samples were collected at three points: between dinner and bedtime (preadministration), between 0 and 4 h after administration, and between 4 and 8 h after administration. The blood was immediately centrifuged at 1700 ×g for 10 min to obtain plasma. Plasma and urine fractions were stored at −80°C or lower until analysis.
(§2) For quantification of synephrine, 5 µL of standard solution or methanol was added to 100 µL plasma or urine samples followed by mixing. Ten microliters of erythromycin [internal standard (IS)] solution was added to the solutions followed by mixing and centrifugation (20,400 ×g, 5 min, 4°C). The supernatants were loaded onto an Ostro 96-well plate (Waters) and centrifuged (1500 ×g, 3 min, 4°C) followed by injection into the LC–MS/MS.
(§3) For quantification of 30 ingredients other than atractylodin and synephrine, 25 µL of standard solution or methanol was added to 500 µL plasma or urine samples followed by mixing. Atractylenolide III or digoxin (IS) solution (50 μL) was added to the solutions followed by mixing. For urine, 400 µL of blank plasma was added to the solutions. Ammonium acetate solution (100 mM, 100 or 400 µL) was added to the solutions followed by mixing. For enzymatic treatment, plasma and urine samples were incubated with β-glucuronidase (100 units in 100 mM ammonium acetate) for 2 h at 37°C. A solid-phase cartridge (OASIS HLB, 30 mg/1cc, Waters) was conditioned with methanol and 10 mM ammonium acetate solution, and the samples were loaded onto the cartridge. The cartridge was washed water : methanol (9:1, v/v), and 1.5 mL of methanol and 30 µL of propylene glycol were added to the cartridge to elute the analytes. The mixtures were dried at 25°C under a stream of nitrogen gas. Furthermore, 100 μL of 10 mM ammonium acetate : methanol (8:2, v/v) was added to the dried samples followed by mixing and sonication. The solutions were filtered (0.22 µm) and followed by injection into the LC–MS/MS system. […] Those analytical conditions are summarized in S2 Table and S3 Table.

[2] = Exploratory trial: amount of rikkunshito ingredients in urine; format: in vivo, human
Method: as §1, §2, §3

[3] = Formation of ingredients derived from rikkunshito in formulation, blood, and urine (S11 Table summary); conditions: after rikkunshito administration, per ingredient in the formulation; for Formation of ingredients: form found in Urine: BQL = below the quantification limit
[4] = of the ingredient in the formulation; summary table, reference not given; cited from earlier work
[5] = Stability of ingredients in gastric pH solution (pH 1.2, 37°C); format: physicochemical; conditions: pH 1.2
Method: Rikkunshito gradually dissolved in acidic solution (pH 1.2) at 37°C, and the concentration of atractylodin after adding 0.25, 0.5, 1, and 2 h was measured by gas chromatography–mass spectrometry.

[6] = clinical; conditions: human, in vivo, po, Median t max (range)
Description: The first trial was a nonrandomized, open-label, one-period design. The second trial was a randomized, open-label, three-arm, three-period design (Fig 1). With respect to inclusion criteria, the studies included healthy Japanese adults between 20 and 45 years of age with a body mass index between 18 and 25 who were willing and able to comply with the study requirements. Exclusion criteria for this study included a history of significant liver, heart, or vessel disease and consumption of supplements that contained any rikkunshito ingredients or any drug within 3 days to 1 week before the first dose. Other standard exclusion criteria included relevant allergies, pregnant or nursing females, and any alcohol or nicotine use. The sample size was set as more than 15 based on the Ministry of Health, Labour and Welfare’s guidelines. Subjects allocated to a screening test were randomized to one of three groups by the central allocation system (allocation ratio 1:1:1). A random sequence was generated using a computer. The safety endpoint was evaluated in all volunteers. This endpoint was defined on the basis of a physician’s judgement after examination or observation that a serious adverse event had occurred. Adverse events included death, a life-threatening event, an event requiring hospitalization for treatment or an extended stay in hospital, an event resulting in permanent or temporary disability or dysfunction, an event resulting in a congenital abnormality, or any other serious medical phenomenon. With respect to side effects, no specific conditions were defined, and all adverse events for which no causal relationship with the drug could be excluded were deemed to be side effects. In each stage during the 48-h period following rikkunshito administration, the physician monitored the patient for subjective symptoms, objective findings, swelling, body temperature (axillary), blood pressure (sitting), and pulse (sitting). The physician also conducted a hematological examination to measure the patient’s red blood cell, leucocyte and platelet counts, hemoglobin level, and hematocrit value. A biochemical examination was conducted to determine total protein, blood urea nitrogen, creatinine, uric acid, aspartate aminotransferase, alanine aminotransferase, total bilirubin, alkaline phosphatase, γ-glutamyltranspeptidase albumin, prothrombin time, total cholesterol, C-reactive protein, and potassium to identify any abnormalities in comparison with the subject’s condition prior to administration. All participants fasted for 12 h before administration and 4 h after administration of the study drug.
In the second quantitative trial, 12-mL blood samples were collected at 0 (preadministration), 0.25, 0.5, 1, 2, 3, 4, 6, 8, 10, 12, 24, and 48 h after a single oral administration of rikkunshito (Lot H05142). A total of 3 daily doses were used in this trial, i.e., the clinical dose per administration (2.5 g) as the lowest dose, the clinical daily dose (7.5 g) as the highest dose, and an intermediate dose (5.0 g), to broadly discuss the pharmacokinetic characteristics of the ingredients measured. The trial participants were hospitalized overnight on the day they ingested rikkunshito, and returned home the following day after blood samples were collected at the 24-h time point. The participants returned to the hospital to provide blood samples at 48 h. The blood was immediately centrifuged at 1700 ×g for 15 min to obtain plasma. Plasma fractions were stored at −20°C or lower until analysis.
Plasma, urine, and rikkunshito formulation samples were analyzed for rikkunshito ingredients concentrations using a liquid chromatography–mass spectrometry with tandem mass spectrometer assay (LC–MS/MS; API5000, Triple Quad 6500, or QTRAP5500; AB Sciex, Tokyo, Japan) or gas chromatography–mass spectrometry. Further information of analytical methods can be found at S1 Appendix.

[7] = Method validation: post-preparative stability (autosampler)
[8] = Method validation: stability in standard, stock and working solution; conditions: 0.1 mg/mL
[9] = Method validation: freeze-thaw stability in plasma; conditions: 160 pg/mL, deep freezer (−30°C to −10°C), after 3 cycles of freeze-thaw
[10] = Method validation: long-term stability in plasma; conditions: 160 pg/mL
[11] = Method validation: stability in blood; conditions: 4 pg/mL

Row | SMILES | Plasma concentration, 0 h [1] | Plasma concentration, 0.5 h [1] | Plasma concentration, 1 h [1] [pg/mL] | Plasma concentration, 2 h [1] | Plasma concentration, 4 h [1] | Plasma concentration, 8 h [1] | Amount in urine, Pre ([2]; human, in vivo) [ng] | Amount in urine, 4–8 h ([2]; human, in vivo, po) [ng] | Formation of ingredients: form found in Blood [3] | Formation of ingredients: form found in Urine [3] | Metabolite by enterobacterium [4] | Stability in gastric pH solution, Quantitative value ([5]; 0.5 h) [ng/mL] | Stability in gastric pH solution, Quantitative value ([5]; 1 h) [ng/mL] | Stability in gastric pH solution, Quantitative value ([5]; 2 h) [ng/mL] | other results
1 | O=C1C[C@@H](c2ccc(O[C@@H]3O[C@H](CO)[C@@H](O)[C@H](O)[C@H]3O)cc2)Oc2cc(O)ccc21 [Liquiritin] | BQL | 1020 ± 131 pg/mL | 841 ± 94.3 | 403 ± 91.3 pg/mL | 114 ± 39.2 pg/mL | BQL | 15.7 ± 19.0 | 1900 ± 945 | Liquiritin Liquiritigenin^c | Liquiritin Liquiritigenin^c | Liquiritigenin^b | 1670 | 1830 | 1720 | 
2 | O=C(/C=C/c1ccc(O[C@@H]2O[C@H](CO)[C@@H](O)[C@H](O)[C@H]2O)cc1)c1ccc(O)cc1O [isoliquiritin] |  |  |  |  |  |  |  |  | Isoliquiritigenin Conjugate metabolites of isoliquiritigenin | Isoliquiritigenin Conjugate metabolites of isoliquiritigenin | Isoliquiritigenin |  |  |  | 
3 | O=C1C[C@@H](c2ccc(O)cc2)Oc2cc(O)ccc21 [Liquiritigenin] |  |  |  |  |  |  |  |  |  |  |  |  |  |  | Tmax [6]: > 3 h; Post-preparative stability, RR ([7]; 4 pg/mL, autosampler set at 4°C for 25 h): 89.2%; Post-preparative stability, RR ([7]; 4 pg/mL, autosampler set at 4°C for 48 h): 94.1%; Post-preparative stability, RR ([7]; 160 pg/mL, autosampler set at 4°C for 25 h): 99.3%; Post-preparative stability, RR ([7]; 160 pg/mL, autosampler set at 4°C for 48 h): 103.4%; Stock solution stability, RR ([8]; refrigerator (1°C to 8°C) for 54 days): 54 days: 99.6%; Stock solution stability, RR ([8]; refrigerator (1°C to 8°C) for 129 days): 129 days: 103.5%; Freeze-thaw stability, RR [9]: 92.5%; Long-term stability, RR ([10]; freezer (−30°C to −10°C) for 22 days): 92.5%; Long-term stability, RR ([10]; freezer (−30°C to −10°C) for 31 days): 87.4%; Long-term stability, RR ([10]; freezer (−30°C to −10°C) for 220 days): 87.9%; Stability in blood, RR ([11]; at room temperature for 2 h): 82.0%; Stability in blood, RR ([11]; on ice for 2 h): 91.6%
4 | C[C@@H]1O[C@@H](OC[C@H]2O[C@@H](Oc3cc(O)c4c(c3)O[C@H](c3ccc(O)cc3)CC4=O)[C@H](O)[C@@H](O)[C@@H]2O)[C@H](O)[C@H](O)[C@H]1O [Narirutin] |  |  |  |  |  |  |  |  | Naringenin Conjugate metabolites of naringenin^a | Naringenin | Naringenin | 1630 | 1700 | 1690 | Amount in urine, 0–4 h ([2]; 0–4 h after single oral rikkunshito 7.5 g, mean ± S.D., n = 4): BQL; Amount in urine, 4–8 h ([2]; 4–8 h after single oral rikkunshito 7.5 g, mean ± S.D., n = 4): BQL; Amount in urine, Pre ([2]; preadministration (between dinner and bedtime), mean ± S.D., n = 4): 9.26 ± 18.5 ng
5 | C[C@@H]1O[C@@H](O[C@H]2[C@H](Oc3cc(O)c4c(c3)O[C@H](c3ccc(O)cc3)CC4=O)O[C@H](CO)[C@@H](O)[C@@H]2O)[C@H](O)[C@H](O)[C@H]1O [Naringin] | BQL | BQL | 59.0 ± 68.4 | BQL | BQL | BQL | 70.7 ± 69.2 | 598 ± 329 | Naringin Naringenin Conjugate metabolites of naringenin^a | Naringin Naringenin | Naringenin (portion) | 959 | 1060 | 986 | Amount in urine, 0–4 h ([2]; human, in vivo, po): 1030 ± 313 ng
